# Reference: ChEMBL document CHEMBL5370598, “[3H]UR-JG102-A Radiolabeled Cyclic Peptide with High Affinity and Excellent Selectivity for the Neuropeptide Y Y4 Receptor” (J Med Chem, 2023)
# What was measured:
# [1] = biological target: T1, Neuropeptide Y receptor type 4 (Homo sapiens, UniProt P50391); assay: (§1) Displacement of [3H]-(9S,12S,15S,19R,E)-4-amino-N-((S)-1-(((S)-1-(((S)-1-amino-3-(4-hydroxyphenyl)-1-oxopropan-2-yl)amino)-5-guanidino-1-oxopentan-2-yl)amino)-4-methyl-1-oxopentan-2-yl)-15-(3-guanidinopropyl)-12-(4-hydroxybenzyl)-2,11,14,17,20-pentaoxo-19-(4-(propanamido-2,3-t2)butanamido)-1,3,5,10,13,16,21-heptaazacyclopentacos-3-ene-9-carboxamide from human Y4R expressed in CHO cells coexpressing Gqi5-mtAEQ under hypotonic sodium free buffer condition; type: cell-based
# T1 sequence (P50391 whole entry): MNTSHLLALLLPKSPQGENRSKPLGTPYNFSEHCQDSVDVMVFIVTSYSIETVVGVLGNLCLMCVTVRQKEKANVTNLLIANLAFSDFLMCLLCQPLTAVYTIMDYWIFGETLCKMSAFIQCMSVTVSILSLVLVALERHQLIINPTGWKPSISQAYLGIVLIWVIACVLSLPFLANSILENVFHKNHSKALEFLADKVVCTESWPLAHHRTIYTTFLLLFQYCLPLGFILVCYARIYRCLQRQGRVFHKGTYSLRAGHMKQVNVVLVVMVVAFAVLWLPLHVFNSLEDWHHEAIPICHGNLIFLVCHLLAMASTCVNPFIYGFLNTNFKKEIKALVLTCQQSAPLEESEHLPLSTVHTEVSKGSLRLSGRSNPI
# [2] = biological target: T1, Neuropeptide Y receptor type 4; assay: Binding affinity to human Y4R under sodium free condition
# [3] = biological target: T1, Neuropeptide Y receptor type 4; assay: as §1, with “isotonic” for “hypotonic”, “containing” for “free”; type: cell-based
# [4] = biological target: T1, Neuropeptide Y receptor type 4; assay: Binding affinity to human Y4R under 140 mM sodium condition
# [5] = biological target: T1, Neuropeptide Y receptor type 4; assay: Binding affinity to human Y4R under hypotonic sodium free condition
# [6] = biological target: T2, Neuropeptide Y receptor type 2 (Homo sapiens, UniProt P49146); assay: Displacement of [3H]propionyl-pNPY from human Y2R expressed in CHO cells; type: cell-based
# T2 sequence (P49146 whole entry): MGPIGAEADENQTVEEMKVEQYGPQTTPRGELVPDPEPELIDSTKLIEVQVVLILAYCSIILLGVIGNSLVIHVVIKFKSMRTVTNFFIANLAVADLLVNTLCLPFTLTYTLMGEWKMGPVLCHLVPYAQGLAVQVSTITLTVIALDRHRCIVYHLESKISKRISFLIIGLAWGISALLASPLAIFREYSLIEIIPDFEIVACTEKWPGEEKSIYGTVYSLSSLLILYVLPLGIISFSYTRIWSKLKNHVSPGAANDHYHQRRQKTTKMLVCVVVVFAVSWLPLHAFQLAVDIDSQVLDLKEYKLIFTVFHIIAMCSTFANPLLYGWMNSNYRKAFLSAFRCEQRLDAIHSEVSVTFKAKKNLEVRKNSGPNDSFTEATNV
# [7] = biological target: T3, Neuropeptide Y receptor type 5 (Homo sapiens, UniProt Q15761); assay: Displacement of [3H]propionyl-pNPY from human Y5R expressed in HEC-1B cells; type: cell-based, HEC-1B cell line
# T3 sequence (Q15761 whole entry): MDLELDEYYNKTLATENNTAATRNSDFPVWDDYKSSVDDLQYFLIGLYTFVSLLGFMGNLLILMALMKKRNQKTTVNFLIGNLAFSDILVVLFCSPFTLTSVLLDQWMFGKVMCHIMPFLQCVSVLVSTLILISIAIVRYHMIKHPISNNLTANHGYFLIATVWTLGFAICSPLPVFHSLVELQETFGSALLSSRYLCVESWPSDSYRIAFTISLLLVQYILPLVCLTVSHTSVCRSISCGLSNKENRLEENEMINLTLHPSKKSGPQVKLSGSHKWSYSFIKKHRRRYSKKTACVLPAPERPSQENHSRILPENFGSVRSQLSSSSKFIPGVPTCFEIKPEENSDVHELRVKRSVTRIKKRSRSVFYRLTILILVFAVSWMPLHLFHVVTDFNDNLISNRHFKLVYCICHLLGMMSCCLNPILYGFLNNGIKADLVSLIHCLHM
# Homo sapiens [8] = species on record: Homo sapiens; assay: Selectivity ratio of pKi for human Y5R to pKi for human Y4R
# [9] = biological target: T1, Neuropeptide Y receptor type 4; assay: Binding affinity to human Y4R expressed in CHO cells co-expressing Gqi5-mtAEQ assessed as observed association rate constant under sodium free buffer condition; type: cell-based; conditions: filed as agonist, tested as the 3H-labelled form
# [10] = biological target: T1, Neuropeptide Y receptor type 4; assay: Binding affinity to human Y4R expressed in CHO cells co-expressing Gqi5-mtAEQ assessed as Kon preincubated for 20 mins under DPBS condition; type: cell-based; conditions: filed as agonist, tested as the 3H-labelled form
# [11] = biological target: T1, Neuropeptide Y receptor type 4; assay: Binding affinity to human Y4R expressed in CHO cells co-expressing Gqi5-mtAEQ assessed as Koff preincubated for 20 mins under DPBS condition; type: cell-based; conditions: filed as agonist, tested as the 3H-labelled form
# Homo sapiens [12] = species on record: Homo sapiens; assay: Selectivity ratio of pKi for human Y2R to pKi for human Y4R
# [13] = biological target: T1, Neuropeptide Y receptor type 4; assay: Binding affinity to human Y4R expressed in CHO cells co-expressing Gqi5-mtAEQ assessed as observed association rate constant preincubated for 20 mins under DPBS condition; type: cell-based; conditions: filed as agonist, tested as the 3H-labelled form
# [14] = biological target: T4, Neuropeptide Y receptor type 1 (Homo sapiens, UniProt P25929); assay: Displacement of [3H]UR-MK299 from human Y1R expressed in SK-N-MC cells; type: cell-based
# T4 sequence (P25929 whole entry): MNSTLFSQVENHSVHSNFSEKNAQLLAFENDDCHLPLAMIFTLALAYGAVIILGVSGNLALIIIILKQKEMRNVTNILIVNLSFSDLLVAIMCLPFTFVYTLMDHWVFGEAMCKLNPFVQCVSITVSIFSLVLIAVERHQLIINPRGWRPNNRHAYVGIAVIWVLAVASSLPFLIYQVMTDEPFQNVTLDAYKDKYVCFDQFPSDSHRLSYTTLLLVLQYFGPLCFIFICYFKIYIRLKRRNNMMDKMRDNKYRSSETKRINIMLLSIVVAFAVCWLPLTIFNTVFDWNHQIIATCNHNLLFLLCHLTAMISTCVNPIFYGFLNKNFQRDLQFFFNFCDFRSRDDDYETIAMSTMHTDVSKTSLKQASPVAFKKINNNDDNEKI
# [15] = biological target: T1, Neuropeptide Y receptor type 4; assay: Agonist activity at human Y4R expressed in HEK293T cells by miniGsi assay relative to control; type: functional, cell-based; conditions: filed as agonist
# [16] = biological target: T1, Neuropeptide Y receptor type 4; assay: Binding affinity to human Y4R expressed in CHO cells co-expressing Gqi5-mtAEQ assessed as Kon preincubated for 2 hrs under DPBS condition; type: cell-based; conditions: filed as agonist, tested as the 3H-labelled form
# [17] = biological target: T1, Neuropeptide Y receptor type 4; assay: Binding affinity to human Y4R expressed in CHO cells co-expressing Gqi5-mtAEQ assessed as Koff preincubated for 2 hrs under DPBS condition; type: cell-based; conditions: filed as agonist, tested as the 3H-labelled form
# [18] = biological target: T1, Neuropeptide Y receptor type 4; assay: Agonist activity at human Y4R expressed in HEK293T cells incubated for 60 mins by cAMP CAMYEN assay relative to control; type: functional, cell-based; conditions: filed as agonist
# Homo sapiens [19] = species on record: Homo sapiens; assay: Selectivity ratio of pKi for human Y1R to pKi for human Y4R
# [20] = Chemical stability in PBS buffer at pH 7.4 after 48 hrs by RP-HPLC analysis; type: physicochemical; conditions: pH 7.4, 48 h
# [21] = biological target: T1, Neuropeptide Y receptor type 4; assay: Agonist activity at human Y4R expressed in CHO cells co-expressing Gqi5-mtAEQ by calcium2+ aequorin assay; type: functional, cell-based
# [22] = biological target: T1, Neuropeptide Y receptor type 4; assay: Agonist activity at human Y4R expressed in CHO cells co-expressing Gqi5-mtAEQ by calcium2+ aequorin assay relative to control; type: functional, cell-based; conditions: filed as agonist
# [23] = biological target: T1, Neuropeptide Y receptor type 4; assay: Binding affinity to human Y4R expressed in CHO cells co-expressing Gqi5-mtAEQ assessed as Kon under sodium free buffer condition; type: cell-based; conditions: filed as agonist, tested as the 3H-labelled form
# [24] = biological target: T1, Neuropeptide Y receptor type 4; assay: Binding affinity to human Y4R expressed in CHO cells co-expressing Gqi5-mtAEQ assessed as Koff under sodium free buffer condition; type: cell-based; conditions: filed as agonist, tested as the 3H-labelled form
# [25] = biological target: T1, Neuropeptide Y receptor type 4; assay: Agonist activity at human Y4R expressed in HEK293T cells incubated for 60 mins by cAMP CAMYEN assay; type: functional, cell-based
# [26] = biological target: T1, Neuropeptide Y receptor type 4; assay: Agonist activity at human Y4R expressed in HEK293T cells by miniGsi assay; type: functional, cell-based
# [27] = biological target: T1, Neuropeptide Y receptor type 4; assay: Displacement of [3H]UR-KK200 from human Y4R expressed in CHO cells co-expressing Gqi5-mtAEQ; type: cell-based
# [28] = biological target: T1, Neuropeptide Y receptor type 4; assay: Binding affinity to human Y4R expressed in CHO cells co-expressing Gqi5-mtAEQ under sodium free buffer condition; type: cell-based
# [29] = biological target: T1, Neuropeptide Y receptor type 4; assay: Binding affinity to human Y4R expressed in CHO cells co-expressing Gqi5-mtAEQ assessed as dissociation constant preincubated for 20 mins under DPBS condition; type: cell-based
# [30] = biological target: T1, Neuropeptide Y receptor type 4; assay: Binding affinity to human Y4R expressed in CHO cells co-expressing Gqi5-mtAEQ at 4 degreeC; type: cell-based
# [31] = biological target: T1, Neuropeptide Y receptor type 4; assay: Binding affinity to human Y4R expressed in CHO cells co-expressing Gqi5-mtAEQ assessed as dissociation constant under sodium free buffer condition; type: cell-based
# [32] = biological target: T1, Neuropeptide Y receptor type 4; assay: Binding affinity to human Y4R expressed in CHO cells co-expressing Gqi5-mtAEQ under DPBS condition; type: cell-based
# [33] = biological target: T1, Neuropeptide Y receptor type 4; assay: Binding affinity to human Y4R under 137 mM sodium condition
# [34] = biological target: T1, Neuropeptide Y receptor type 4; assay: Binding affinity to human Y4R expressed in CHO cells co-expressing Gqi5-mtAEQ assessed as dissociation constant preincubated for 2 hrs under DPBS condition; type: cell-based
structure (smiles),measurement,setting,value
[3H]CC([3H])C(=O)N[C@H](CCCC[C@@H](N)C(=O)N[C@@H](Cc1ccc(O)cc1)C(=O)N[C@@H](CCCNC(=N)N)C(=O)N[C@@H](CC(C)C)C(=O)N[C@@H](CCCNC(=N)N)C(=O)N[C@@H](Cc1ccc(O)cc1)C(N)=O)C(=O)N[C@@H](Cc1ccc(O)cc1)C(=O)N[C@@H](CCCNC(=N)N)C(=O)N[C@@H](CC(C)C)C(=O)N[C@@H](CCCNC(=N)N)C(=O)N[C@@H](Cc1ccc(O)cc1)C(N)=O (stereo partly drawn),Ki,[1]; read-out: Ki,0.39 nM
same,Kd,[2],0.67 nM
same,Ki,[3]; read-out: Ki,11 nM
same,Ki,[3]; read-out: pKi (converted),10.2 nM
same,Kd,[4],9.8 nM
same,Ki,[5],0.87 nM
CCC(=O)NCCCC(=O)N[C@@H]1CC(=O)N[C@@H](CCCNC(=N)N)C(=O)N[C@@H](Cc2ccc(O)cc2)C(=O)N[C@H](C(=O)N[C@@H](CC(C)C)C(=O)N[C@@H](CCCNC(=N)N)C(=O)N[C@@H](Cc2ccc(O)cc2)C(N)=O)CCCN/C(N)=N/C(=O)NCCCCNC1=O.O=C(O)C(F)(F)F.O=C(O)C(F)(F)F.O=C(O)C(F)(F)F,Ki,[6]; read-out: Ki,> 3000 nM
same,Ki,[6]; read-out: pKi (converted),> 3160 nM
same,Ki,"[7]; hec-1b cell line, read-out: Ki",> 1000 nM
same,Ki,[7]; read-out: pKi (converted),> 1000 nM
same,Ratio pKi,Homo sapiens [8],> 27000
same,Ratio pKi,Homo sapiens [8]; tested as the 3H-labelled form,> 27000
same,K,[9],0.071 min⁻¹
same,K,[10],1.4e+08 M⁻¹ s⁻¹
same,K,[11],0.12 min⁻¹
same,Ratio pKi,Homo sapiens [12],> 27000
same,Ratio pKi,Homo sapiens [12]; tested as the 3H-labelled form,> 27000
same,K,[13],0.54 min⁻¹
same,Ki,[14]; read-out: pKi (converted),> 1000 nM
same,Ki,"[14]; sk-n-mc, read-out: Ki",> 1000 nM
same,Emax,[15],60%
same,K,[16],1.17e+07 M⁻¹ s⁻¹
same,K,[17],0.059 min⁻¹
same,Emax,[18],83%
same,Ki,[1]; read-out: Ki,0.01 nM
same,Ki,[1]; read-out: pKi (converted),0.00891 nM
same,Ratio pKi,Homo sapiens [19],> 27000
same,Ratio pKi,Homo sapiens [19]; tested as the 3H-labelled form,> 27000
same,Stability,[20],Stable
same,Ki,[3]; read-out: Ki,0.088 nM
same,Ki,[3]; read-out: pKi (converted),0.0832 nM
same,EC50,[21]; read-out: EC50,5.4 nM
same,EC50,[21]; read-out: pEC50 (converted),5.13 nM
same,Emax,[22],65%
same,K,[23],6.83e+07 M⁻¹ s⁻¹
same,K,[24],0.009 min⁻¹
same,EC50,[25]; read-out: EC50,0.17 nM
same,EC50,[25]; read-out: pEC50 (converted),0.126 nM
same,EC50,[26],5.1 nM
same,Ki,[27]; read-out: Ki,0.036 nM
same,Ki,[27]; read-out: pKi (converted),0.0316 nM
[3H]CC([3H])C(=O)NCCCC(=O)N[C@@H]1CC(=O)N[C@@H](CCCNC(=N)N)C(=O)N[C@@H](Cc2ccc(O)cc2)C(=O)N[C@H](C(=O)N[C@@H](CC(C)C)C(=O)N[C@@H](CCCNC(=N)N)C(=O)N[C@@H](Cc2ccc(O)cc2)C(N)=O)CCCN/C(N)=N/C(=O)NCCCCNC1=O (stereo partly drawn),Kd,[28],0.012 nM
same,Kd,[29],0.014 nM
same,Kd,[30],0.86 nM
same,Kd,[31],0.002 nM
same,Kd,[32],0.11 nM
same,Kd,[33],0.11 nM
same,Kd,[34],0.09 nM
